Key:
[1] = flow time (rate of flow) over 10 cm on a plane tilted at 45°; type: physicochemical; conditions: 0.5 ml, plate tilted 45°
Description: (§1) Three types of tests were performed: flow measurement on a biological membrane, the test of immersion in artificial saliva and the salting-out test. The rate of flow is the time it takes a given volume of liquid to travel 10 centimetres across a plane tilted at 45°. The saliva immersion test aims to highlight the contact time of the product with the biological membrane when it is subjected to the effect of saliva. Finally, the salting-out test aims to highlight the time it takes the product to salt out a tracer when it is subject to permanent “leaching” by the saliva. These three tests are described in full in the scientific literature and are reference tests for measuring the time a solution remains at its site of action in experimental conditions approximating the physiological conditions of the pharyngeal mucosa.
The composition (bioadhesive preparation) was examined under experimental conditions to verify its bioadhesive properties and compare them to a non-bioadhesive reference substance (distilled water) and a liposome-based commercial preparation (liposome preparation). The measurements carried out included flow time on a biological membrane and immersion in artificial saliva.
The rate of flow is the time it takes for a given volume of liquid to travel 10 cm over a plane tilted at 45°. This test was performed on 3 levels: • on a 20 cm^2 stainless-steel plate, non-biological membrane; • on a 20 cm^2 stainless-steel plate covered with a cellulose membrane, biological membrane; • on a 20 cm^2 stainless-steel plate covered in a cellulose membrane impregnated with a 5% mucin solution.
For this study, 0.5 ml was deposited 0.5 cm from the top edge of the plate, the deposit being made in horizontal position. The chronometer starting line is located 5 cm from the top edge of the plate when the liquid crosses it after tilting the plate to 45°. In the same way, the chronometer stopping line is located 5 cm from the bottom edge of the plate when the liquid crosses it.

[2] = artificial saliva immersion test; type: physicochemical; conditions: membrane covered in mucin, submerged vertically in 2 litres of artificial saliva
Description: as §1
The aim of the artificial saliva immersion test is to show the contact time of the product with the biological membrane when subjected to the effect of saliva. As before, the product is deposited on the surface of a biological membrane covered in mucin. After flowing over a distance of 10 cm, the plate/biological membrane/product assembly is submerged vertically in a container with 2 litres of artificial saliva. The time the product remains on the surface of the membrane is determined using a chronometer.

O [Distilled water]
<1″: flow time, Stainless-steel support ([1]; 20 cm^2 stainless-steel plate, non-biological) | flow time, Stainless-steel + membrane + mucin ([1]; cellulose membrane impregnated with 5% mucin solution) | flow time, Stainless-steel + membrane ([1]; stainless-steel plate covered with cellulose membrane) | time the product remains on the surface of the membrane [2]

Source: patent US20080069913A1, “Anti-Snoring Composition” (PERSEE MEDICA,, priority 2004, published 2008)
